Source: patent US6514997B2, “Antipicornaviral compounds and compositions, their pharmaceutical uses, and materials for their synthesis” (Agouron Pharmaceuticals, Inc., priority 1999, dated 2003)
Like-named read-outs stand apart in the source and are kept apart here.

Columns and labels:
[1] = target: T1, Recombinant rhinovirus 3C protease, serotype 14 (Human rhinovirus 14, UniProt P03303); assay: Inhibition of rhinovirus 3C protease (FRET assay, kobs/[I]), serotype 14; format: biochemical; conditions: pH 7.6; HRV-14; read-out: kobs/[I] (3C protease inhibition activity)
T1 construct: Recombinant rhinovirus 3C proteases; made in house
T1 sequence (P03303 1538-1719): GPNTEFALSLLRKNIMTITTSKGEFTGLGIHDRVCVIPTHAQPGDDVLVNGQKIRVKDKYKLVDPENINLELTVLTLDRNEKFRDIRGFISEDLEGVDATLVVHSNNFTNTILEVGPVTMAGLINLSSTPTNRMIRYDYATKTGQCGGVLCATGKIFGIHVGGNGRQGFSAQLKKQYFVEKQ
Method in brief: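 kobs/[I] values came from progress curves of reactions started by adding 50-100 nM protease to buffer (50 mM tris pH 7.6, 1 mM EDTA, 2% DMSO) containing compound and ~1 μM quenched DABCYL-EDANS substrate. Rising EDANS fluorescence reported cleavage.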

[2] = system: strains of human rhinovirus (HRV); assay: Antirhinoviral H1-HeLa cell culture assay (XTT cell protection, EC50), other HRV strains; format: cell-based, human rhinovirus in H1-HeLa cells; conditions: read-out: EC50
Method in brief: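 Protection of H1-HeLa cells from rhinovirus was scored two days post-infection via XTT dye reduction read at 450/650 nm, alongside mock-infected cells for toxicity. CC50/EC50 gives the therapeutic index.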

[3] = Cytotoxicity (CC50) in mock-infected H1-HeLa cells, XTT dye reduction; format: cell-based, human; conditions: human, H1-HeLa cells
Method in brief: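 XTT dye reduction (formazan, 450/650 nm) in H1-HeLa cells, mock-infected, gave CC50.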

[4] = system: Coxsackievirus type B3 (CVB3); assay: Anticoxsackieviral cell culture assay (XTT, EC50), CVB3; format: cell-based, coxsackievirus B3 in H1-HeLa cells
Description: Anticoxsackieviral Cell Culture Assay:
Coxsackievirus types A-21 (CAV-21) and B3 (CVB3) were purchased from American Type Culture Collection (ATCC, Rockville, Md.). Virus stocks were propagated and antiviral assays were performed in H1-HeLa cells (ATCC). Cells were grown in minimal essential medium with 10% fetal bovine serum (Life Technologies, Gaithersburg, Md.). The ability of the compounds of this invention to protect cells against either CAV-21 or CVB3 infection was measured by the XTT dye reduction method. This method is described in Weislow et al., J. Natl. Cancer Inst. (1989), vol. 81, 577-586. H1-HeLa cells were infected with CAV-21 or CVB3 at a multiplicity of infection (m.o.i.) of 0.025 or 0.075, respectively, or mock-infected with medium only. H1-HeLa cells were plated at 4×10^4 cells per well in a 96-well plate and incubated with appropriate concentrations of the test compound. One day (CVB3) or two days (CAV-21) later, XTT/PMS was added to test plates and the amount of formazan produced was quantified spectrophotometrically at 450/650 nm. […] The therapeutic index (TI) was calculated by dividing the CC50 by the EC50.

coxsackievirus B2 (CVB2) = assay: Anticoxsackieviral cell culture assay (EC50), CVB2; format: cell-based; conditions: Enterovirus B
coxsackievirus B5 (CVB5) = assay: Anticoxsackieviral cell culture assay (EC50), CVB5; format: cell-based; conditions: Enterovirus B

C#CC[C@@H](C(=O)N[C@H](/C=C/C(=O)OC1CCC1)C[C@@H]1CCNC1=O)n1cccc(NC(=O)c2cc(C)on2)c1=O [Compound 53, trans-(2′S,3′″″S,4S)-4-[2′-(3″-{[1′″-(5″″-Methylisoxazol-3″″-yl)methanoyl]amino}-2′″-oxo-2′″H-pyridin-1′″-yl)pent-4″-ynoylamino]-5-(2′″″-oxopyrrolidin-3′″″-yl)pent-2-enoic Acid Cyclobutyl Ester]
kinact/KI [1]: 207000 M⁻¹ s⁻¹
EC50 ([2]; H1-HeLa, HRV-1A): 0.128 µM
EC50 ([2]; H1-HeLa, HRV-2): 0.078 µM
EC50 ([2]; H1-HeLa, HRV-23): 0.045 µM
EC50 ([2]; Human rhinovirus sp., H1-HeLa, HRV-Hanks): 0.137 µM
EC50 ([2]; Human rhinovirus sp., HRV3, H1-HeLa, HRV-3): 0.044 µM
EC50 ([2]; Human rhinovirus sp., HRV9, H1-HeLa, HRV-9): 0.133 µM
EC50 ([2]; Human rhinovirus sp., HRV10, H1-HeLa, HRV-10): 0.037 µM
EC50 ([2]; Human rhinovirus sp., HRV11, H1-HeLa, HRV-11): 0.02 µM
EC50 ([2]; Human rhinovirus sp., HRV13, H1-HeLa, HRV-13): 0.157 µM
EC50 ([2]; Human rhinovirus sp., HRV16, H1-HeLa, HRV-16): 0.102 µM
EC50 ([2]; Human rhinovirus sp., HRV19, H1-HeLa, HRV-19): 0.053 µM
EC50 ([2]; Human rhinovirus sp., HRV25, H1-HeLa, HRV-25): 0.066 µM
EC50 ([2]; Human rhinovirus sp., HRV39, H1-HeLa, HRV-39): 0.125 µM
EC50 ([2]; Human rhinovirus sp., HRV78, H1-HeLa, HRV-78): 0.04 µM
CC50 at 2 days ([3]; mock-infected, line of HRV-14): > 10 µM
CC50 at 2 days ([3]; uninfected (mock-infected), line of CAV-21): > 10 µM
CC50 ([3]; uninfected (mock-infected), line of CVB2): > 10 µM
CC50 at 1 day ([3]; uninfected (mock-infected), line of CVB3): > 10 µM
EC50 [4]: 0.156 µM
EC50 (coxsackievirus B2 (CVB2)): 0.154 µM
EC50 (coxsackievirus B5 (CVB5)): 0.157 µM
